Results reported in PMC4504079, “Andrographolide sodium bisulphite-induced inactivation of urease: inhibitory potency, kinetics and mechanism” (BMC Complementary and Alternative Medicine, 2015).

Experiments:
jack bean urease (JBU) = jack bean urease (JBU) (Canavalia ensiformis, UniProt P07374); experiment: urease activity assay (modified Berthelot ammonia determination), slow-binding progress curves; format: biochemical
[1] = target: T1, Helicobacter pylori urease (HPU) (Helicobacter pylori, UniProt P69996); experiment: urease activity assay on desalted crude bacterial extract (modified Berthelot); format: biochemical
T1 construct: gene ureB; crude urease solution from H. pylori ATCC 43504
T1 sequence (P69996 whole entry): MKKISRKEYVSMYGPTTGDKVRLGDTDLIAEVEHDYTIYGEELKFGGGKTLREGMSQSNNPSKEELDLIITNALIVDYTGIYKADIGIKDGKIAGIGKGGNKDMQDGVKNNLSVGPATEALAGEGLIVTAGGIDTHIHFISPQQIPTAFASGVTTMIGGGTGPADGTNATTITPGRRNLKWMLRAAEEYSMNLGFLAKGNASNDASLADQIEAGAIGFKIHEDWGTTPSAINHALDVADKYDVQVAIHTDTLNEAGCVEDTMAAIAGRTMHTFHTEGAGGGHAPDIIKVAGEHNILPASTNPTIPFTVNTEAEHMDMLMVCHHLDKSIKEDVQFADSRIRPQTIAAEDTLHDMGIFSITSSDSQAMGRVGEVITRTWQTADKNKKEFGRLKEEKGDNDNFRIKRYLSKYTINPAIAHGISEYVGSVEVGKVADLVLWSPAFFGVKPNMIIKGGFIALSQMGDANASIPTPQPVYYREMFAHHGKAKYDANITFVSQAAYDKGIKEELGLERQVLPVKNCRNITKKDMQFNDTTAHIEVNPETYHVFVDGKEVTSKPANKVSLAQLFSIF

Chain of jack bean urease (JBU) (P07374 whole entry): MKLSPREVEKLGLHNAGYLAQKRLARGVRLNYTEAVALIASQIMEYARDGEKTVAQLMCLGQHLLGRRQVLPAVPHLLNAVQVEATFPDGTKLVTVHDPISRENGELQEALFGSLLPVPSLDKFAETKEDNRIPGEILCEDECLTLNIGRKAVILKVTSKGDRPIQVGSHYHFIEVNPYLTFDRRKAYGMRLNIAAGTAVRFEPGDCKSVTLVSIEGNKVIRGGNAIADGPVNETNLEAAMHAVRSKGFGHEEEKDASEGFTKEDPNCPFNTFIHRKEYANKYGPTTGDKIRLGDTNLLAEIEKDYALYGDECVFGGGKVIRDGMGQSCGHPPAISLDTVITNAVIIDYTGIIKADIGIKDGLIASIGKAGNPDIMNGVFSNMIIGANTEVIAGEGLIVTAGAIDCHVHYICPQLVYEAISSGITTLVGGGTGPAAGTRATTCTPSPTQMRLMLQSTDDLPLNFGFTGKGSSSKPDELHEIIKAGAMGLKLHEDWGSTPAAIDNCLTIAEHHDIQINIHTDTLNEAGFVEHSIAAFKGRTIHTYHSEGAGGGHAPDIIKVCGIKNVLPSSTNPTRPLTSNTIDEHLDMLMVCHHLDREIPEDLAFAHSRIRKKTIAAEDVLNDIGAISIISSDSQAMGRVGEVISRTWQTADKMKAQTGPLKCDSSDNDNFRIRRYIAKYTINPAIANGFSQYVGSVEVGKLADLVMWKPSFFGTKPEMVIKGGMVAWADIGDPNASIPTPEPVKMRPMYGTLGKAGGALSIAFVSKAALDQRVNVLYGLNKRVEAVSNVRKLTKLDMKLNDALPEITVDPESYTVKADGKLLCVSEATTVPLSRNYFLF

SMILES: C=C1CC[C@@H]2[C@](C)(CO)[C@H](O)CC[C@@]2(C)[C@@H]1CC(C1=CCOC1=O)S(=O)(=O)O (some centres unmarked) [ASB, Andrographolide sodium bisulphite]
- IC50 (jack bean urease (JBU)): 3.28 ± 0.13 mM
- IC50 [1]: 3.17 ± 0.34 mM
